Experimental data: publication PMC6054074, “The medicinal thiosulfinates from garlic and Petiveria are not radical-trapping antioxidants in liposomes and cells, but lipophilic analogs are” (Chemical Science, 2015)
Read-outs that look alike come from different tables or passages of the source.

Molecular target: T1, papain (Carica papaya, UniProt P00784)
T1 sequence (P00784 134-345): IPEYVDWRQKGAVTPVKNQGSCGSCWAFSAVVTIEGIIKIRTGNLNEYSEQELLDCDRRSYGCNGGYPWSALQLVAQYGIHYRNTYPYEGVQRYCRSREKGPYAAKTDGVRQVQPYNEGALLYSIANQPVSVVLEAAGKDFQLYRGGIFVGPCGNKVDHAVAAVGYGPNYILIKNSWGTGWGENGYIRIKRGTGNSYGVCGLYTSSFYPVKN
Assay: chromogenic protease assay (BAPNA, […] nm) after […] min preincubation of DTT-reduced papain with compound
Format: biochemical

| IC50 (read-out: IC50) | Structure (SMILES) | IC50 |
| --- | --- | --- |
| – | C=CCS[S+]([O-])CC=C (stereo not drawn) [compound 1, allicin] | 1.2 ± 0.2 µM |
| 1.1 ± 0.1 µM | [O-][S+](Cc1ccccc1)SCc1ccccc1 (stereo not drawn) [compound 2, petivericin] | – |
| 1 ± 0.1 µM | CCCCCCc1ccc(CS[S+]([O-])Cc2ccc(CCCCCC)cc2)cc1 (stereo not drawn) [compound 4, hexylated petivericin] | – |
